Experiments:
Test in all cases: relative viability (nuclei count vs DMSO), 5 days (fraction); higher = more cells survive
[1] = compound: CS(=O)(=O)c1ccc(C(=O)Nc2ccc(Cl)c(-c3ccccn3)c2)c(Cl)c1 [Vismodegib] + N=C(N)NC(=N)NCCc1ccccc1 [Phenformin] (partner 250 µM)
Summary of the method: (§1)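 Relative viability equals treated-well nuclei counts divided by vehicle-well nuclei counts. Counts came from 4× images of lung cancer cell lines grown in 1536-well plates for 5 days after pin-tool dosing on the day after seeding. Dosing used one drug alone or a fixed anchor-drug dose plus five library-drug doses (not always all listed) in √10 steps, and values are medians of duplicate plates.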

[2] = compound: CS(=O)(=O)c1ccc(C(=O)Nc2ccc(Cl)c(-c3ccccn3)c2)c(Cl)c1 [Vismodegib] + C[C@@H](Oc1cc(-c2cnn(C3CCNCC3)c2)cnc1N)c1c(Cl)ccc(F)c1Cl [Crizotinib] (partner 1 µM)
Summary of the method: as §1

[3] = compound: CS(=O)(=O)c1ccc(-c2cnc(N)c(C(=O)Nc3ccccc3)n2)cc1 [VE-821] + N=C(N)NC(=N)NCCc1ccccc1 [Phenformin] (partner 250 µM)
Summary of the method: as §1

[4] = compound: N#CC[C@H](C1CCCC1)n1cc(-c2ncnc3[nH]ccc23)cn1 [Ruxolitinib] + Cc1cc(Nc2cc(N3CCN(C)CC3)nc(Sc3ccc(NC(=O)C4CC4)cc3)n2)n[nH]1 [Tozasertib] (partner 0.1 µM)
Summary of the method: as §1

Cell Line	relative viability ([1]; first compound 0.08 µM)	relative viability ([1]; first compound 0.253 µM)	relative viability ([1]; first compound 0.8 µM)	relative viability ([1]; first compound 2.53 µM)	relative viability ([1]; first compound 8 µM)	relative viability ([2]; first compound 0.08 µM)	relative viability ([2]; first compound 0.253 µM)	relative viability ([2]; first compound 0.8 µM)	relative viability ([2]; first compound 2.53 µM)	relative viability ([2]; first compound 8 µM)	relative viability ([3]; first compound 0.08 µM)	relative viability ([3]; first compound 0.253 µM)	relative viability ([3]; first compound 0.8 µM)	relative viability ([3]; first compound 2.53 µM)	relative viability ([3]; first compound 8 µM)	relative viability ([4]; first compound 0.08 µM)	relative viability ([4]; first compound 0.253 µM)	relative viability ([4]; first compound 0.8 µM)	relative viability ([4]; first compound 2.53 µM)	relative viability ([4]; first compound 8 µM)
NCI-H596	0.71	0.737	0.748	0.769	0.767	0.986	0.966	0.929	1.02	0.965	0.78	0.635	0.735	0.871	0.631	0.827	0.897	0.962	0.955	0.799
201T	0.45	0.49	0.423	0.45	0.44	0.954	1.06	0.997	1.02	1.01	0.476	0.415	0.468	0.431	0.364	1.11	1.19	1.17	1.21	1.11
HOP-62	0.645	0.637	0.665	0.698	0.569	0.991	0.905	0.867	0.503	0.908	0.671	0.611	0.77	0.696	0.667	0.345	0.394	0.415	0.402	0.348
NCI-H1975	0.402	0.408	0.398	0.424	0.389	0.953	0.957	0.945	0.826	0.94	0.397	0.394	–	0.418	0.36	0.724	0.78	0.682	0.767	0.389
NCI-H1755	0.596	0.61	0.611	0.617	0.598	0.817	0.842	0.964	0.839	0.859	0.632	0.601	0.546	0.615	0.527	0.561	0.525	0.622	0.616	0.557
ChaGo-K-1	0.523	0.448	0.47	0.459	0.452	1.19	1.09	1.13	1.06	1.22	0.454	0.459	0.536	0.496	0.427	0.246	0.243	0.454	0.176	0.195
NCI-H2023	0.367	0.364	0.43	0.384	0.401	0.586	0.56	0.707	0.615	0.685	0.481	0.394	0.282	0.272	0.139	0.305	0.352	0.506	0.356	0.302
EKVX	0.225	0.227	0.24	0.224	0.233	0.849	0.895	0.898	1.09	0.952	0.241	0.223	0.204	0.221	0.226	0.392	0.439	0.463	0.282	0.443
LCLC-97TM1	0.443	0.407	0.42	0.452	0.407	–	–	0.418	–	0.355	0.413	0.454	0.426	0.457	0.435	0.178	0.316	0.229	0.305	0.348
NCI-H2085	0.698	0.749	0.714	0.718	0.697	0.867	0.873	0.854	0.826	0.83	0.762	0.674	0.558	0.869	0.481	0.882	0.765	0.886	0.77	0.688
BEN	0.249	0.281	0.292	0.255	0.248	0.779	0.927	0.807	0.934	0.986	0.284	0.281	0.283	0.257	0.249	0.486	0.503	0.552	0.537	0.453
HARA	0.47	0.355	0.537	0.503	0.415	0.956	0.965	1.03	1.05	1.06	0.497	0.459	0.469	0.484	0.356	0.113	0.111	0.112	0.107	0.119
PC-14	0.658	0.444	0.567	0.512	0.602	0.835	0.777	0.971	0.914	0.839	0.648	0.528	0.675	0.574	0.449	–	0.677	0.58	0.471	0.483
SW 1573	0.493	0.353	0.4	0.323	0.385	0.895	0.755	0.827	0.774	0.956	0.405	0.293	0.358	0.456	0.162	0.209	0.182	0.167	0.183	0.16
NCI-H1355	0.455	0.474	0.462	0.458	0.401	1.04	0.995	1.02	1.07	1.09	0.469	0.442	0.459	0.526	0.369	0.575	0.564	0.571	0.594	0.574
NCI-H460	0.516	0.512	0.561	0.508	0.595	0.985	0.925	1.04	0.936	0.999	0.574	0.482	0.398	0.205	0.0832	–	0.601	0.606	0.578	0.744
NCI-H2126	0.529	0.517	0.482	0.493	0.506	1.11	0.96	1.08	0.991	1.04	0.565	0.494	0.51	0.514	0.409	0.864	0.848	1.1	0.975	0.838

Cell Line	relative viability ([1]; first compound 0.08 µM)	relative viability ([1]; first compound 0.253 µM)	relative viability ([1]; first compound 0.8 µM)	relative viability ([1]; first compound 2.53 µM)	relative viability ([1]; first compound 8 µM)	relative viability ([2]; first compound 0.08 µM)	relative viability ([2]; first compound 0.253 µM)	relative viability ([2]; first compound 0.8 µM)	relative viability ([2]; first compound 2.53 µM)	relative viability ([2]; first compound 8 µM)	relative viability ([3]; first compound 0.08 µM)	relative viability ([3]; first compound 0.253 µM)	relative viability ([3]; first compound 0.8 µM)	relative viability ([3]; first compound 2.53 µM)	relative viability ([3]; first compound 8 µM)	relative viability ([4]; first compound 0.08 µM)	relative viability ([4]; first compound 0.253 µM)	relative viability ([4]; first compound 0.8 µM)	relative viability ([4]; first compound 2.53 µM)	relative viability ([4]; first compound 8 µM)
LCLC-103H	0.39	0.332	0.328	0.357	0.323	0.871	1.04	0.955	1.02	1.04	0.335	0.31	0.352	0.351	0.269	0.492	0.519	0.595	0.552	0.501
COR-L 105	0.498	0.441	0.516	0.506	0.495	0.63	0.728	0.751	0.773	0.715	0.519	0.325	0.472	0.387	0.343	0.383	0.314	0.423	0.475	0.35
H3255	0.362	0.378	0.362	0.324	0.413	0.812	0.737	0.965	0.913	0.597	0.377	0.338	0.42	0.344	0.383	0.612	0.568	0.841	0.56	0.682
NCI-H441	0.838	0.648	0.831	0.835	0.907	0.68	0.745	0.658	0.722	0.723	1.02	0.988	1.02	1.02	0.842	0.63	0.629	0.716	0.625	0.587
NCI-H2347	0.336	0.477	0.448	0.361	0.464	0.691	0.713	0.64	0.582	0.656	0.476	0.295	0.347	0.495	0.358	0.612	0.561	0.554	0.725	0.701
CAL-12T	0.641	0.584	0.578	0.561	0.578	0.693	0.761	0.685	0.773	0.807	0.585	0.526	0.611	0.523	0.396	0.348	0.412	0.344	0.313	0.312
HCC-827	0.39	0.406	0.381	0.384	0.408	0.893	0.888	0.985	0.908	0.887	0.425	0.398	0.391	0.458	0.335	–	0.342	0.35	0.397	0.386
NCI-H520	0.535	0.576	0.63	0.574	0.688	0.854	0.662	0.714	0.679	0.896	0.575	0.613	0.375	0.818	0.381	0.553	0.467	0.537	0.439	0.477
A-427	0.307	0.385	0.385	0.314	0.283	0.833	0.838	0.927	0.857	0.882	0.341	0.319	0.293	0.365	0.225	0.232	0.201	0.237	0.184	0.179
NCI-H650	0.469	0.417	0.45	0.418	0.393	0.61	0.702	0.687	0.809	0.865	0.448	0.429	0.45	0.494	0.468	–	0.834	0.788	0.554	0.603
NCI-H727	0.52	0.58	0.592	0.524	0.444	0.733	0.771	0.576	0.938	0.857	0.503	0.552	0.547	0.537	0.385	0.663	0.818	0.674	0.567	0.589
ABC-1	0.231	0.253	0.241	0.24	0.235	0.6	0.827	1.12	0.993	0.958	0.308	0.26	0.203	0.244	0.211	–	0.222	0.155	0.202	0.201
NCI-H23	0.765	0.728	0.806	0.742	0.731	0.489	0.54	0.597	0.553	0.537	0.812	0.743	0.785	0.844	0.479	0.434	0.418	0.437	0.401	0.301
SK-LU-1	0.569	0.489	0.538	0.477	0.705	1.02	0.817	0.874	0.881	0.997	0.675	0.528	0.497	0.383	0.216	0.363	0.328	0.412	0.372	0.338
NCI-H2170	0.416	0.409	0.444	0.433	0.39	1.23	1.08	1.19	1.17	1.31	0.416	0.399	0.358	0.412	0.359	0.804	0.689	0.768	0.77	0.6
LOU-NH91	0.66	0.68	0.67	0.75	0.681	0.726	0.76	0.704	0.747	0.728	0.742	0.701	0.693	0.706	0.734	–	0.627	0.744	0.65	0.632
